# Experimental data from patent US10632064B2, “Topical regional neuro affective therapy with cannabinoid combination products” (Afgin Pharma, LLC, priority 2015, dated 2020).
# Values joined by “and” are separate entries in the source; they are usually repeats but may differ in a detail not shown here. Identical values can stand only once. “Also recorded” adds a separate entry of the source.
# Columns and labels:
# [1] = test system: human patient with episodic severe post-operative neuralgic head pain; assay: Example 6: topical cannabidiol 40 mg at the BONATH, post-operative neuralgic head pain, EEG; format: in vivo
# Protocol: The efficacy of a topical cannabidiol formulation was studied in a human patient (s/p resection right clival meningioma) suffering from episodic severe post-operative neuralgic head pain suffering from severe right-sided neuralgic head pain every 15-20 seconds. The patient was treated with cannabidiol 40 mg applied to the BONATH in a topical formulation. There was attenuation of associated focal EEG abnormalities. […] The neuralgic head pain was less severe by about 50% (frequency decreased to every 2-5 minutes).
# [2] = test system: patient with stroke and focal seizures; assay: Example 16: 1 g of 1.6% CBD cream nuchal, stroke and focal seizures, EEG; format: in vivo, human
# Protocol: In Example 16, a patient presented with stroke and focal seizures. […]. FIG. 9 is a baseline EEG taken at the initial examination, showing left fronto-central seizure focus.
# The patient was treated with 1 g of 1.6% CBD cream to the nuchal (back of the neck). […] They were able to return to work as a beterinarian and do surgery, which was unexpected as their Rehab MD had previously advised them that we would have to retire.
# [3] = test system: human patient having a remote head injury, s/p 4 craniotomies and intractable seizures; assay: Example 7: topical cannabidiol 40 mg at the BONATH, intractable seizures, EEG; format: in vivo; settings: cannabidiol 40 mg topical at BONATH
# Protocol: The efficacy of a topical cannabidiol formulation was studied in a human patient having a remote head injury, s/p 4 craniotomies and intractable seizures. The patient was treated with cannabidiol 40 mg applied to the BONATH in a topical formulation. There was attenuation of associated focal EEG abnormalities.
# [4] = test system: patient with head injury and seizures; assay: Example 14: 1 g of 1.6% CBD cream nuchal twice a day, intractable complex partial seizures, EEG; format: in vivo, human
# Protocol: They presented with seizures (intractable complex partial seizures with secondary generalization; episodes of encephalopathy for 24 hours thereafter). […] They had had 5 craniotomies, and previously had been treated with Dilantin, Carbatrol, Keppra, Lamictal, and Depakote. Their current medications were Vimpat and Onfi (clobazam).
# The patient was treated with 1 g of 1.6% CBD cream to the nuchal (back of the neck) region twice a day. […] The patient remained on Vimpat, and their dose of Onfi was reduced by half.
# human patients = assay: Example 5: topical cannabidiol (CBD) formulation on the back of the neck, 40 mg dose, patient cases (Table 1); format: in vivo
# Protocol: The following patients were treated with a topical cannabidiol (CBD) formulation administered on the back of the neck on human patients at a 40 mg dose, as more specifically described below in Table 1: […]
# [5] = test system: patient with atonic seizures; assay: Example 17: 1 g of 1.6% CBD cream nuchal, atonic seizures, EEG; format: in vivo, human
# Protocol: In Example 17, a patient presented with atonic seizures. The patient would suddenly freeze and fall down (e.g., riding a bike, at school, etc.). FIG. 11 is a baseline EEG taken at the initial examination, showing cortical irritability on the left central region c/w potential for seizures.
# The patient was treated with 1 g of 1.6% CBD cream to the nuchal (back of the neck). […] FIG. 13 is a brain MRI of the patient showing a left thalamic hamartoma, a benign developmental process, likely irritating the brain and causing their seizures.
# [6] = test system: acute paranoid schizophrenia; settings: cited from earlier work
# [7] = test system: patients having acute and chronic neurological and psychiatric conditions; assay: Example 12: topical CBD from crystalline powder (Table 6); format: in vivo, human
# Protocol: In Example 12, 19 patients having acute and chronic neurological and psychiatric conditions were treated with topical CBD at the back of the neck. The treatment comprised a dose of either 15 mg or 30 mg cannabinoid drugs, with the majority being CBD, the source of the CBD being CBD crystalline powder oil commercially available from CannaVest.
# [8] = test system: patients having headaches and neck pain; assay: Example 9: topical CBD at the back of the neck (Table 3); format: in vivo, human
# Protocol: In Example 9, 13 patients having headaches and neck pain were treated with topical CBD at the back of the neck. The treatment comprised a dose of either 15 mg or 30 mg cannabinoid drugs, with the majority being CBD, the source of the CBD being CBD oil commercially available from CannaVest.
# [9] = test system: patients having Parkinson's disease, tremors, or movement disorders; assay: Example 11: topical CBD at the back of the neck (Table 5); format: in vivo, human
# Protocol: In Example 11, 6 patients having Parkinson's disease, tremors, or movement disorders were treated with topical CBD at the back of the neck. The treatment comprised a dose of either 15 mg or 30 mg cannabinoid drugs, with the majority being CBD, the source of the CBD being CBD oil commercially available from CannaVest.
# [10] = test system: patient with autism and generalized seizures; assay: Example 15: 1 g of 2% CBD cream nuchal, autism and generalized seizures, EEG; format: in vivo, human
# Protocol: In Example 15, a patient presented with autism and generalized seizures. They were uncontrolled on Lamictal, Depakote, Keppra, Zonegran, ethosuximide/Zarontin. When examined, they presented with seizures about every 2 weeks on Banzel, Onfi, and Topamax as antiepileptics. FIG. 7 is a baseline EEG taken at the initial examination, showing seizure focus, showing generalized slowing and disorganization with left frontal sharp waves and paroxysms of sharp waves and spikes.
# The patient was treated with 1 g of 2% CBD cream to the nuchal (back of the neck). […] They continued therapy with the topical CBD cream to the nuchal region twice daily, and the Topamax was tapered off, resulting in added overall improved encephalopathy.
# [11] = test system: patients having a variety of conditions; assay: Example 18: topical CBD cream compounded from crystalline powder (Table 7); format: in vivo, human; settings: 1% topical CBD; single patients
# Protocol: The CBD was compounded in crystalline powder form rather than in CBD-oil form into the topical cream. The doses were 7.5 mg (0.75% topical CBD cream), 10 mg (1% topical CBD cream), 15 mg (1.5% topical CBD cream) or 20 mg (2% topical CBD cream).
# [12] = cannabidiol 40 mg topical at BONATH
# [13] = twice a day CBD treatment to the nuchal region
structure (smiles),measurement,setting,value
"C=C(C)[C@@H]1CCC(C)=C[C@H]1c1c(O)cc(CCCCC)cc1O [CBD, cannabidiol]",EEG after nuchal administration,[1]; [12],attenuation of the right temporal waves to a more normal state
same,duration of EEG improvement and clinical benefit,[1]; [12],"The EEG improvement lasted several minutes, but the clinical benefit lasted several hours"
same,neuralgic head pain less severe,[1]; [12],about 50%
same,frequency of neuralgic head pain after treatment (every ...),"[1]; cannabidiol 40 mg topical, before every 15-20 seconds",2 to 5 min
same,EEG after CBD dose,[2]; 10 minutes after application of 1 g of 1.6% CBD cream (FIG. 10),attenuated seizure focus
same,clinical result,[2]; [13],remains seizure free; also recorded: helping their spastic weakness from the stroke
same,time seizure free after initiation of treatment,[2]; [13],about 9 months
same,EEG post-treatment,[3],the right fast activity and sharp waves were attenuated
same,seizure status on treatment,"[4]; 16 mg nuchal topical CBD twice daily with Vimpat and Onfi, one year follow-up and 20 months",the patient was seizure-free; also recorded: remained seizure-free since June 2014
same,follow-up EEG post-treatment,[4]; one year follow-up (FIG. 6),right fast activity and sharp waves attenuated; also recorded: no longer showing seizure potential
same,time after topical CBD at which the effect was seen,"human patients; 40 mg topical CBD on back of neck, single patients","10-15 minutes after nuchal and 15 minutes and within 15 minutes. and 10 minutes after topical CBD, and hand function within 15 minutes; and 20 minutes after 40 mg topical and 5 minutes after 40 mg topical and 5 minutes and 10-15 minutes after topical CBD,"
same,anxiety level after nuchal topical CBD,"human patients; 40 mg, person in panic attack, before 7-8 of 10",anxiety from 7-8 of 10 to 4 of 10
same,time without freezing episodes after one dose,"human patients; one dose of 40 mg topical CBD, Parkinson's patient with 10-12 freezing episodes per day",over 24 hours; also more
same,EEG after CBD dose,[5]; 10 minutes after application of 1 g of 1.6% CBD cream (FIG. 12),attenuated seizure focus
same,seizure status on treatment,"[5]; topical CBD nuchal since October 2015, only medication",seizure-free since initiating topical CBD therapy
same,psychotic symptoms,[6]; after 2 weeks,significant decrease in psychotic symptoms
same,side effects,[6]; compared with amisulpride,significantly fewer side effects
same,result in words (Table 6),[7]; 0.75% topical CBD to neck and 1% to back,1% to back with patient feeling more alert
same,time after application at which the effect was seen,[7]; 1% topical CBD to neck and back,≤ 1 min
same,result in words (Table 6),"[7]; 1% topical CBD, one patient per entry","became more alert and spontaneous; also recorded: spasticity improved with better movement of; also recorded: improved pain within three minutes. Stated; also recorded: worked better than oil-based CBD they had; also recorded: focus, clearer thinking, and reduced anxiety"
same,pain decrease,"[7]; 1% topical CBD, single patients",50% and pain 20% within a few minutes. and additional 30% from prior baseline.
same,result in words (Table 6),[7]; 1.5% topical (powdered) CBD cream,1.5% topical CBD reduced neck tension and relieved neuropathic pain. Had been using and relieved anxiety and improved demeanor.
same,result in words (Table 6),[7]; 2% topical CBD cream,relieved back and lower extremity; also recorded: relieved neck pain and tension from
same,neck pain and tension level after treatment,"[7]; 2% topical CBD cream to back of neck, from 8 of 10, in few minutes",8 of 10 to 2 in few minutes.
same,"result after topical CBD, in words (Table 3)","[8]; 15 mg or 30 mg cannabinoid drugs (CBD oil) topical, one patient per entry","improved mobility and After week of daily use, headache free and calm, less anxious, and breathing easier. and Headache and neck pain resolved and Chronic daily headaches resolved after daily and Neck pain resolved and 2×/day with benefit for past 2 months. Injury and the neck, pain resolve and ROM improved and chronic headache and improved range and Pain resolved after several and All pain symptoms resolved after 3 weeks of"
same,right facial weakness and decreased sensation improved,"[8]; Bell's palsy, CBD to back of neck and region of stylomastoid foramen",30%
same,"pain (headache, neck, TMJ, back, thoracic) reduction","[8]; after topical CBD, single patients",50% and diminished 50% for the first time. Prescribed and Chronic back pain improved 30% and Thoracic pain reduced 30% within and Headaches and neck pain improved 30% with
same,ROM of neck improved,"[8]; person, 5 minutes after topical CBD to the neck",80%. Will continue to use daily.
same,time after topical CBD at which the effect was seen,[8]; single patients,"5 minutes after topical CBD to back of neck, and 5-10 minutes and 5 minutes after topical CBD application to and ≤ 15 minutes and within 15 minutes after topical CBD and ≤ 10 minutes of topical CBD"
same,"result after topical CBD, in words (Table 5)","[9]; 15 mg or 30 mg cannabinoid drugs (CBD oil) at back of neck, one patient per entry",resolved festination/small steppage; also recorded: Facial twitching improved after
same,time after topical CBD at which the effect was seen,[9]; single patients,15 minutes after one application and 10 minutes and 10 minutes after topical CBD appli- and 5 minutes; now using 3×/ day.
same,clinical result,"[10]; 2% CBD cream nuchal, continued twice daily",more alert and interactive; also recorded: Seizure frequency also was reduced
same,EEG after CBD application,[10]; within one minute of application of 1 g of 2% CBD cream (FIG. 8),improvement in the EEG background without previous burst activity; also recorded: right fast activity and sharp waves attenuated
same,pain decrease,[11],50%
